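All cell lines were grown in 96-well plates and treated with compound for 48 hours. Here, GI50 denotes the concentration required for 50% inhibition of growth.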 Active and inactive are the calls of the source. No stated cut-off is given here; in the data, active = GI50 up to about 1.1 µM and inactive = higher.
Columns and labels:
Assay in all cases: growth of human tumour cells (NCI), 48 h
CCRF-CEM = system: CCRF-CEM
XF498 = system: XF498
SNB-19 = system: SNB-19
HCT-15 = system: HCT-15
UACC-62 = system: UACC-62
DMS-273 = system: DMS-273
SNB-78 = system: SNB-78
LOX IMVI = system: LOX IMVI
LXFL 529 = system: LXFL 529
M14 = system: M14
NCI-H460 = system: NCI-H460
SF-295 = system: SF-295
MOLT-4 = system: MOLT-4
HL-60 = system: HL-60
HCT-116 = system: HCT-116

SMILES	GI50 (CCRF-CEM)	GI50 (XF498)	GI50 (SNB-19)	GI50 (HCT-15)	GI50 (UACC-62)	GI50 (DMS-273)	GI50 (SNB-78)	GI50 (LOX IMVI)	GI50 (LXFL 529)	GI50 (M14)	GI50 (NCI-H460)	GI50 (SF-295)	GI50 (MOLT-4)	GI50 (HL-60)	GI50 (HCT-116)
O=C1OC(c2ccccc2)=N/C1=C/NC(Cc1c[nH]cn1)C(=O)O (stereo not given)	> 100 µM (inactive)	> 100 µM (inactive)	> 100 µM (inactive)	> 100 µM	> 100 µM (inactive)	> 100 µM (inactive)	> 100 µM (inactive)	> 100 µM (inactive)	> 100 µM (inactive)	> 100 µM (inactive)	> 100 µM (inactive)	> 100 µM (inactive)	> 100 µM (inactive)	> 100 µM (inactive)	> 100 µM (inactive)
OCC12C3C4C1C1C2C3C41CO (stereo not given)	> 100 µM (inactive)	> 100 µM (inactive)	> 100 µM (inactive)	> 100 µM	> 100 µM (inactive)		> 100 µM (inactive)	> 100 µM (inactive)	> 100 µM (inactive)	> 100 µM (inactive)	> 100 µM (inactive)	> 100 µM (inactive)	> 100 µM (inactive)		
COc1ccc2c(c1)c(Cc1c(C)n(C)c3ccc(OC)cc13)c(C)n2C	> 100 µM (inactive)	> 100 µM (inactive)	> 100 µM (inactive)	> 100 µM	> 100 µM (inactive)	> 100 µM (inactive)	> 100 µM (inactive)	> 100 µM (inactive)	> 100 µM (inactive)	> 100 µM (inactive)	> 100 µM (inactive)	> 100 µM (inactive)	> 100 µM (inactive)	> 100 µM (inactive)	> 100 µM (inactive)
O=C(NN1C(=O)C(Cl)C1c1c(O)ccc2ccccc12)c1ccccc1O (stereo not given)	> 100 µM (inactive)	> 100 µM (inactive)	> 100 µM (inactive)	> 100 µM	> 100 µM (inactive)	> 100 µM (inactive)	> 100 µM (inactive)	> 100 µM (inactive)	> 100 µM (inactive)	> 100 µM (inactive)	> 100 µM (inactive)	> 100 µM (inactive)	> 100 µM (inactive)	> 100 µM (inactive)	> 100 µM (inactive)
NC1CCC[C@H]1O (stereo not given in full)	> 100 µM (inactive)	> 100 µM (inactive)	> 100 µM (inactive)	> 100 µM	> 100 µM (inactive)	> 100 µM (inactive)	> 100 µM (inactive)	> 100 µM (inactive)		> 100 µM (inactive)	> 100 µM (inactive)	> 100 µM (inactive)	> 100 µM (inactive)	> 100 µM (inactive)	> 100 µM (inactive)
O=C(CCc1cc(-c2ccco2)n(-c2ccc([N+](=O)[O-])cc2[N+](=O)[O-])n1)Nc1ccccc1	61 µM (inactive)	> 100 µM (inactive)	> 100 µM (inactive)	> 100 µM	> 100 µM (inactive)	> 100 µM (inactive)	> 100 µM (inactive)		> 100 µM (inactive)	> 100 µM (inactive)	> 100 µM (inactive)	> 100 µM (inactive)	65.8 µM (inactive)	49.3 µM (inactive)	> 100 µM (inactive)
CCCCCC/C=C1\CCC(CN2CCOCC2)C1=O (stereo not given)	3.24 µM (inactive)	16.1 µM (inactive)	18.6 µM (inactive)	8.67 µM	16.8 µM (inactive)	15.9 µM (inactive)	21.8 µM (inactive)	10.2 µM (inactive)	3.3 µM (inactive)	14.6 µM (inactive)	38.7 µM (inactive)	17.7 µM (inactive)	5.26 µM (inactive)	2.77 µM (inactive)	14.4 µM (inactive)
COc1cccc2c1C(=O)c1c(O)c3c(c(O)c1C2=O)C[C@@](O)(C(=O)CO)CC3OC1CC(NCCOCC(OC(C)=O)OC(C)=O)C(O)C(C)O1 (stereo not given in full)	0.00766 µM (active)	< 0.01 µM (active)	0.00782 µM (active)	< 0.01 µM	0.00498 µM (active)			0.00598 µM (active)	< 0.01 µM (active)	< 0.01 µM (active)	< 0.01 µM (active)	0.00973 µM (active)	< 0.01 µM (active)	< 0.01 µM (active)	
Nc1nc2[nH]cnc2c(=O)[nH]1	> 100 µM (inactive)	> 100 µM (inactive)		> 100 µM	> 100 µM (inactive)	> 100 µM (inactive)	> 100 µM (inactive)	> 100 µM (inactive)	> 100 µM (inactive)	> 100 µM (inactive)	> 100 µM (inactive)	> 100 µM (inactive)		> 100 µM (inactive)	> 100 µM (inactive)
O=C1CCC2(c3ccc(F)cc3)Nc3ncccc3N12 (stereo not given)	> 100 µM (inactive)	> 100 µM (inactive)		> 100 µM	> 100 µM (inactive)		> 100 µM (inactive)	> 100 µM (inactive)	> 100 µM (inactive)	> 100 µM (inactive)	> 100 µM (inactive)	> 100 µM (inactive)	> 100 µM (inactive)	> 100 µM (inactive)	
COC(=O)CCC(=O)Nc1cccc(C(F)(F)F)c1	> 100 µM (inactive)	> 100 µM (inactive)	> 100 µM (inactive)	> 100 µM	> 100 µM (inactive)	> 100 µM (inactive)	> 100 µM (inactive)	> 100 µM (inactive)	> 100 µM (inactive)	> 100 µM (inactive)	> 100 µM (inactive)	> 100 µM (inactive)	> 100 µM (inactive)	> 100 µM (inactive)	
CN1CCc2c1nc(-c1ccc(Cl)cc1)c1c2N(C)CC1	12 µM (inactive)	10.1 µM (inactive)	22.5 µM (inactive)	7.06 µM	5.94 µM (inactive)	14 µM (inactive)	28.7 µM (inactive)	5.01 µM (inactive)	20.1 µM (inactive)	7.71 µM (inactive)	15.7 µM (inactive)	14.1 µM (inactive)	6.28 µM (inactive)	10.7 µM (inactive)	1.85 µM (inactive)
CC[C@@H](C)[C@@H]1NC(=O)C(C(C)=O)=C1O	5.19 µM (inactive)	80.9 µM (inactive)	0.297 µM (active)	20.2 µM	12.5 µM (inactive)	24.4 µM (inactive)	23.3 µM (inactive)	26.1 µM (inactive)	20.7 µM (inactive)	17.1 µM (inactive)	15.3 µM (inactive)	26.9 µM (inactive)	11.4 µM (inactive)	53.8 µM (inactive)	18.7 µM (inactive)
Cn1cnc([N+](=O)[O-])c1Sc1nc2ccccc2o1	3.03 µM (inactive)	6.44 µM (inactive)	17.7 µM (inactive)	2.77 µM	12.4 µM (inactive)	3.01 µM (inactive)	13.1 µM (inactive)	10.7 µM (inactive)	3.08 µM (inactive)	6.35 µM (inactive)	32.3 µM (inactive)	26.3 µM (inactive)	2.52 µM (inactive)	1.51 µM (inactive)	3.58 µM (inactive)
Cc1cc(=O)n(-c2cc3cccccc-3n2)[nH]1	4.13 µM (inactive)	4.03 µM (inactive)	43.6 µM (inactive)	5.07 µM	2.84 µM (inactive)			9.64 µM (inactive)	3.79 µM (inactive)	4.42 µM (inactive)	3.4 µM (inactive)	16.7 µM (inactive)	4.3 µM (inactive)	3.48 µM (inactive)	2.16 µM (inactive)
O=C(CC1Sc2ccccc2NC1=O)Nc1cccc(Cl)c1 (stereo not given)	40.4 µM (inactive)	28 µM (inactive)	46.9 µM (inactive)	40.6 µM	28.3 µM (inactive)	28.2 µM (inactive)	47.9 µM (inactive)	20.3 µM (inactive)	42.1 µM (inactive)	38.3 µM (inactive)	38.5 µM (inactive)	59.3 µM (inactive)	15.9 µM (inactive)	35.6 µM (inactive)	68.5 µM (inactive)
CC1=C(O)C(=O)C2C(=O)C1C(C)C2c1ccc(Cl)cc1 (stereo not given)	> 100 µM (inactive)	> 100 µM (inactive)	> 100 µM (inactive)	> 100 µM	> 100 µM (inactive)	> 100 µM (inactive)	> 100 µM (inactive)	> 100 µM (inactive)	> 100 µM (inactive)	> 100 µM (inactive)		> 100 µM (inactive)	> 100 µM (inactive)	> 100 µM (inactive)	
COc1ccc(CN(CCN(C)C)c2ccccn2)cc1.Cn1c(=O)c2[nH]c(Br)nc2n(C)c1=O	> 100 µM (inactive)	> 100 µM (inactive)	> 100 µM (inactive)	71.6 µM			> 100 µM (inactive)		> 100 µM (inactive)	> 100 µM (inactive)		> 100 µM (inactive)	> 100 µM (inactive)		
Cc1cc(C)c(C(=O)OC(c2ccccc2)C(c2ccccc2)N2CCOCC2)c(C)c1 (stereo not given)	> 100 µM (inactive)	> 100 µM (inactive)	> 100 µM (inactive)	> 100 µM	> 100 µM (inactive)	> 100 µM (inactive)	> 100 µM (inactive)	> 100 µM (inactive)	> 100 µM (inactive)	> 100 µM (inactive)	> 100 µM (inactive)	> 100 µM (inactive)	93.3 µM (inactive)	44.6 µM (inactive)	> 100 µM (inactive)
Cc1cc2c(C)nn(Cc3ccc(Cl)cc3Cl)c2c(C#N)c1C	> 100 µM (inactive)	29.1 µM (inactive)	> 100 µM (inactive)	> 100 µM	> 100 µM (inactive)	> 100 µM (inactive)	> 100 µM (inactive)	> 100 µM (inactive)	82.4 µM (inactive)		79.4 µM (inactive)	50.4 µM (inactive)	> 100 µM (inactive)	> 100 µM (inactive)	69.7 µM (inactive)

From ChEMBL document CHEMBL1201862, “PubChem BioAssay data set” (2004)
